Measured values as given in PMC12304869 (Obesity (Silver Spring, Md.), 2025).

Tests used:
[1] = assay type: in vivo, male Sprague Dawley rats; conditions: DIO rats
[2] = Phase 2 part 2: pharmacodynamics; assay type: in vivo, human; conditions: part 2b
[3] = cited from earlier work
[4] = DIO rats: body weight during daily s.c. semaglutide; assay type: in vivo, male Sprague Dawley rats; conditions: n = 9
[5] = cited from earlier work; remark: listed apart in the source

semaglutide
cumulative food intake from day 1 to 26, mean (SD) ([1]; vehicle + 30 nmol/kg semaglutide): 389 (53) g
mean body weight change after 26 days, mean (SD) ([1]; vehicle + 30 nmol/kg semaglutide daily s.c., n = 9): −12.5% (3.4%)
change in body weight from baseline (week 32) to EOT (week 48) ([2]; placebo + semaglutide 2.4 mg weekly, ANCOVA estimate, FAS): −3.1%
change in body weight from baseline to EOT ([2]; placebo + semaglutide 2.4 mg): -2.2 kg
weight loss ([3]; semaglutide 2.4 mg alone, over 68 weeks): 14.9%
body weight loss after 26 days of treatment, mean (SD) ([4]; semaglutide 3 nmol/kg daily s.c.): −8.8% (2.9%)
body weight loss after 26 days of treatment, mean (SD) ([4]; semaglutide 30 nmol/kg daily s.c.): −14.2% (3.0%)
body weight loss after 26 days of treatment, mean (SD) ([4]; semaglutide 100 nmol/kg daily s.c.): −17.4% (5.7%)

PYY3‐36: active, Y2‐selective cleaved form of the hormone peptide YY
weight loss after 12 weeks of treatment ([3]; intranasal, 200‐μg dose, participants with obesity, placebo −2.8 kg): -3.7 kg
treatment discontinuation due to nausea and vomiting ([3]; phase 1, intranasal 600 μg): a majority of participants receiving 600 μg discontinued treatment
half‐life (t1/2) [5]: roughly 10 min
